{
  "source": "patent EP4660190A1",
  "about": "“PHARMACEUTICALLY ACCEPTABLE SALT OF COMPOUND AND PREPARATION METHOD THEREFOR” (Jiangsu Chia Tai Fenghai Pharmaceutical Co., Ltd., priority 2023, dated 2024)",
  "key": {"[1]": {"experiment": "Hygroscopicity test (Chinese Pharmacopoeia Section 9103)", "type": "physicochemical", "settings": "25°C, 80% relative humidity, 24 hours"}, "[2]": {"system": "Middle cerebral artery occlusion (MCAO) models of SD rats", "experiment": "Rat MCAO model, 7 daily doses, neurobehavioral scoring (Bederson, NSS)", "type": "in vivo", "parameters": "scale not given here", "settings": "for NSS: 60mg/kg", "description": "Middle cerebral artery occlusion (MCAO) models of SD rats were constructed using the suture occlusion method to evaluate the neuroprotective effect of the compound on neurons of rats after cerebral ischemia-reperfusion. […] The ECA was ligated. The ICA was temporarily occluded. Sutures were threaded at both the proximal end and the distal end of CCA. The distal end was securely ligated, and a loosely tied knot was placed at the proximal end. A small incision was made on the CCA between these two sutures. […] The threading was halted temporarily when reaching the artery clamp of ICA. The pre-ligation suture was further tightened. The artery clamp blocking the blood flow in the ICA was removed, allowing the suture occlusion to be advanced into the ICA until it entered the intracranial region. […] The insertion was stopped at the moment, and the time was recorded. The artery clamp on the CCA was removed and the incision was closed after no active bleeding was observed. The ischemic rats were placed at room temperature to keep their body temperature at 37°C, and anesthesia induction could be carried out 120min later. The suture was slowly and gradually withdrawn when the rats were maintained under anesthesia, so that the proximal end of the suture returned to the ECA, thereby initiating reperfusion of the middle cerebral artery. […] A single dose was administered immediately after reperfusion (within 10 minutes), followed by one dose per day for a total of 7 consecutive doses (including the first dose). Except for the initial administration, all subsequent doses were given between 4:00 PM and 7:00 PM each day. […] Animals were euthanized 7 days after ischemia reperfusion, and the brains were rapidly taken, frozen, and dissected for TTC staining. The normal tissues were rose-red after staining, and the infarcted tissues were white. The infarct size (%) percentage, calculated as the weight of infarcted tissues to the weight of the whole brain, is used to evaluate the degree of cerebral ischemic injury in rats. […] Table 12 Cerebral infarct size and cerebral infarction inhibition rate of experimental animals (2) Neurobehavioral scoring: […] Table 13: Results of Neurobehavioral Scores in Animals"}, "[3]": {"system": "MPTP-induced Parkinson's disease model mice", "experiment": "MPTP-induced mouse Parkinson's disease model, grip strength test", "settings": "Before Modeling, mean ± SD"}, "[4]": {"system": "Middle cerebral artery occlusion (MCAO) models of SD rats", "experiment": "Rat MCAO model, single-dose administration, TTC staining infarct size", "type": "in vivo", "settings": "24 h; for Infarct Size (%): Mean±SD", "description": "3: Pharmacodynamic study in Rat Middle Cerebral Artery Occlusion (MCAO) Model (Single-Dose Administration) Middle cerebral artery occlusion (MCAO) models of SD rats were constructed using the suture occlusion method to evaluate the protection effect of the compound on neurons of rats after cerebral ischemia-reperfusion. After anaesthesia induction with 3.0% isoflurane in SD rats (240-270g), the operation was performed, and the right-side neck area was dissected to reveal the right common carotid artery (CCA), external carotid artery (ECA) and internal carotid artery (ICA). The ECA was ligated. The ICA was temporarily occluded. Sutures were threaded at both the proximal end and the distal end of CCA. The distal end was securely ligated, and a loosely tied knot was placed at the proximal end. A small incision was made between the two ligatures on the CCA. A No. 4-0 suture was inserted through the incision of CCA and slowly and gently pushed into the ICA. The threading was halted temporarily when reaching the artery clamp of ICA. The pre-ligation suture was further tightened. The artery clamp blocking the blood flow in the ICA was removed, allowing the suture occlusion to be advanced into the ICA until it entered the intracranial region. […] The insertion was stopped at the moment, and the time was recorded. The artery clamp on the CCA was removed and the incision was closed after no active bleeding was observed. The ischemic rats were placed at room temperature to keep their body temperature at 37°C, and anesthesia induction could be carried out 120min later. The suture was slowly and gradually withdrawn when the rats were maintained under anesthesia, so that the proximal end of the suture returned to the ECA, thereby initiating reperfusion of the middle cerebral artery. Animals were administered for a single dose immediately after reperfusion (within 10min). 3 groups were established, namely a model control group, a Compound (I) i.v. group (30mg/kg), and a Compound (I) p.o. group (60mg/kg). Animals were euthanized 24 h after ischemia reperfusion, and the brains were rapidly taken, frozen, and dissected for TTC staining. The normal tissues were rose-red after staining, and the infarcted tissues were white. The infarct size (%) percentage, calculated as the weight of infarcted tissues to the weight of the whole brain, is used to evaluate the degree of cerebral ischemic injury in rats."}, "[5]": {"system": "Middle cerebral artery occlusion (MCAO) models of SD rata", "experiment": "Rat MCAO model, 28-day dosing, pathological examination (restoration area, perfused blood vessels)", "type": "in vivo, SD rats", "settings": "for Proportion of samples showing good recovery (%): restoration area > 30%; for No. of erythrocyte-containing blood vessels ≤10: number of animals", "description": "Middle cerebral artery occlusion (MCAO) models of SD rata were constructed by using the suture occlusion method. The rats were administered with the test compound for 28 consecutive days. The pharmacodynamic evaluation on the test compound for cerebral stroke was obtained based on general observation and neurobehavioral assessment. […] The ECA was ligated. The ICA was temporarily occluded. Sutures were threaded at both the proximal end and the distal end of CCA. The distal end was securely ligated, and a loosely tied knot was placed at the proximal end. A small incision was made on the CCA between these two sutures. […] The threading was halted temporarily when reaching the artery clamp of ICA. The pre-ligation suture was further tightened. The artery clamp blocking the blood flow in the ICA was removed, allowing the suture occlusion to be advanced into the ICA until it entered the intracranial region. […] The insertion was stopped at the moment, and the time was recorded. The artery clamp on the CCA was removed and the incision was closed after no active bleeding was observed. The ischemic rats were placed at room temperature to keep their body temperature at 37°C, and anesthesia induction could be carried out 120min later. The suture was slowly and gradually withdrawn under anesthesia until the proximal end retracted into the ECA, thereby initiating reperfusion of the middle cerebral artery. Animals received the designated dosage immediately (within 10 min) after reperfusion. This dosing regimen continued once daily for a duration of 28 days, with the day of operation being defined as D1 (Day 0). […] After the completion of the 28-day dosing period, all surviving animals in the study were euthanized, and their brains were rapidly collected for pathological analysis. […] Table 8 Results of Grid Walking Test […] Table 10 Summary of Tissue Restoration in Each Group"}, "[6]": {"settings": "high dose 20mg/kg p.o. q.d. 28 days"}, "[7]": {"settings": "high dose 20mg/kg p.o. q.d. 28 days, N = 12"}, "[8]": {"settings": "low dose 6mg/kg p.o. q.d. 28 days"}, "[9]": {"settings": "low dose 6mg/kg p.o. q.d. 28 days, N = 12"}, "[10]": {"settings": "60mg/kg p.o. q.d. 28 days, N = 14"}},
  "note": "Marks after values point to notes of the source that are not given here.",
  "data": [
    {"molecule": "(Z)-3-(1-hydroxybutenyl)benzofuran-2-one tromethamine salt [Example 10]", "values": [
      {"measurement": "hygroscopicity", "setting": "[1]", "value": "non-hygroscopic"},
      {"measurement": "weight gain percentage", "setting": "[1]", "value": 0.0, "unit": "%"},
      {"measurement": "Bederson", "setting": "[2]; rat, in vivo", "value": "3.00± 0.00"},
      {"measurement": "Grip Strength Test", "setting": "[3]; high dose 20 mg/kg group", "value": "278.44 ± 8.96", "unit": "g"},
      {"measurement": "Grip Strength Test", "setting": "[3]; low dose 5 mg/kg group", "value": "276.97 ± 6.40", "unit": "g"}
    ]},
    {"molecule": "CCC/C(O)=C1/C(=O)Oc2ccccc21", "note": "[Compound (I)]", "values": [
      {"measurement": "Cerebral infarction inhibition rate (%)", "setting": "[4]; i.v. 30mg/kg single dose after reperfusion", "value": 37.1, "unit": "%"},
      {"measurement": "Infarct Size (%)", "setting": "[4]; i.v. 30mg/kg single dose after reperfusion, 30 mg/kg", "value": "13.61±3.66", "unit": "%"},
      {"measurement": "Infarct Size (%)", "setting": "[4]; i.v. 30mg/kg single dose after reperfusion, listed as compound (I), 30 mg/kg", "value": "13.61±3.66", "unit": "%"},
      {"measurement": "Cerebral infarction inhibition rate (%)", "setting": "[4]; p.o. 60mg/kg single dose after reperfusion", "value": 31.2, "unit": "%"},
      {"measurement": "Infarct Size (%)", "setting": "[4]; p.o. 60mg/kg single dose after reperfusion, 60 mg/kg", "value": "14.88±5.11", "unit": "%"},
      {"measurement": "Infarct Size (%)", "setting": "[4]; p.o. 60mg/kg single dose after reperfusion, listed as compound (I), 60 mg/kg", "value": "14.88±5.11", "unit": "%"},
      {"measurement": "Proportion of erythrocyte-containing blood vessels>10 (%)", "setting": "[5]; [6]", "value": 92.3, "unit": "%"},
      {"measurement": "Number of samples Restoration area > 30%", "setting": "[5]; [7]", "value": "9**"},
      {"measurement": "Number of samples Restoration area ≤ 30%", "setting": "[5]; [7]", "value": 3},
      {"measurement": "Proportion of samples showing good recovery (%)", "setting": "[5]; [6]", "value": 75.0, "unit": "%"},
      {"measurement": "Proportion of erythrocyte-containing blood vessels>10 (%)", "setting": "[5]; [8]", "value": 100, "unit": "%"},
      {"measurement": "Number of samples Restoration area > 30%", "setting": "[5]; [9]", "value": 4},
      {"measurement": "Number of samples Restoration area ≤ 30%", "setting": "[5]; [9]", "value": 8},
      {"measurement": "Proportion of samples showing good recovery (%)", "setting": "[5]; [8]", "value": 33.3, "unit": "%"},
      {"measurement": "No. of erythrocyte-containing blood vessels ≤10", "setting": "[5]; high dose 20mg/kg p.o. q.d. 28 days, N = 13", "value": 1},
      {"measurement": "No. of erythrocyte-containing blood vessels ≤10", "setting": "[5]; [9]", "value": 0}
    ]},
    {"molecule": "CCCCC1OC(=O)c2ccccc21", "note": "(centres unmarked) [Butylphthalide, butylphthalide, reference compound]", "values": [
      {"measurement": "Proportion of erythrocyte-containing blood vessels>10 (%)", "setting": "[5]; 60mg/kg p.o. q.d. 28 days", "value": 93.3, "unit": "%"},
      {"measurement": "Number of samples Restoration area > 30%", "setting": "[5]; [10]", "value": 3},
      {"measurement": "Number of samples Restoration area ≤ 30%", "setting": "[5]; [10]", "value": 11},
      {"measurement": "Proportion of samples showing good recovery (%)", "setting": "[5]; 60mg/kg p.o. q.d. 28 days", "value": 21.4, "unit": "%"},
      {"measurement": "No. of erythrocyte-containing blood vessels ≤10", "setting": "[5]; 60mg/kg p.o. q.d. 28 days, N = 15", "value": 1},
      {"measurement": "Bederson", "setting": "[2]; 60mg/kg group, score after surgery, Mean±SD", "value": "3.00± 0.00"},
      {"measurement": "NSS", "setting": "[2]; D0 (one day before surgery), Mean±SD", "value": "0.00± 0.00"},
      {"measurement": "NSS", "setting": "[2]; D2 (1 day after surgery), Mean±SD", "value": "6.71± 1.36"},
      {"measurement": "NSS", "setting": "[2]; D4 (3 days after surgery), Mean±SD", "value": "5.75±0.92"},
      {"measurement": "NSS", "setting": "[2]; D6 (5 days after surgery), Mean±SD", "value": "4.88± 1.73"},
      {"measurement": "NSS", "setting": "[2]; D8 (7 days after surgery), Mean±SD", "value": "4.04±1.20"}
    ]}
  ]
}
